From US8853424B2 (Japan Science and Technology Agency, priority 2008, dated 2014) come the findings set out here.

The term IC50 denotes the concentration at which inhibition is half-maximal.

Where two headings read alike, the source gives them in different places.

The subject of assay [1] is transglutaminase (TGase). The assay is described as follows: Measurement of TG (TGase inhibitory activity, monodansyl cadaverine / N,N-dimethylcasein fluorescence, FDSS 3000). The assay is classed as biochemical. The method, boiled down:
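Compound (1 μL of 10 mM stock) added to 0.1 mL reaction: 100 mM HEPES-NaOH pH 7.5, 1 mM CaCl2, 20 μM monodansyl cadaverine, 0.05 mg/mL N,N-dimethylcasein, 5 μg/mL TGase. Rate of fluorescence change at 340 nm measured; DMSO control set to 100; TG50 is the concentration halving activity.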

Assay [2] relates to Truncated N-terminal huntington 150 Q-EGFP-Neuron 2a cells. As to the kind of experiment: Measurement of x-Fold (polyglutamine aggregation inhibitory activity). The assay is classed as cell-based. Here is the method:
In the present invention, the polyglutamine aggregation inhibitory activity (x-Fold) can be measured, for example, by the method described in the Example.
The number of the aggregated cells, and the total number of cells were counted by Array Scan V T1 (manufactured by Cellomics, Pittuburg, USA), and the ratio of the aggregated cells to the total number of cells was determined (x-Fold). […]

Assay [3] relates to SOC (store operated calcium channel). As to the kind of experiment: Measurement of SOC IC50 (thapsigargin store depletion, calcium re-addition, CHO cells). It is filed as cell-based. Conditions: read-out: SOC IC50. The method, then:
The SOC (store operated calcium channel)-suppressive action can be measured by the method described in the Example and using, for example, FDSS 3000.
CHO cell culture medium was replaced with a BSS solution which is an extracellular fluidfree of calcium, the compound of the present invention was added 1 min later, and 1 μM thapsigargin was allowed to act thereon 2 min later to deplete intracellular calcium store. […]

Where [4] appears, read: TGase activity with compound (10 mM, 1 μL in 0.1 ml enzyme reaction solution), DMSO control taken as 100.
Setting [5] is: TGase inhibitory activity measurement, unit not given.
The mark [6] stands for this setting: polyglutamine aggregation, Truncated N-terminal huntington 150 Q-EGFP-Neuron 2a cells.
Setting [7] is: ratio of aggregated cells to total number of cells, compound 20 μM, 20 hr, almost 1 without compound, smaller = stronger inhibition.
Where [8] appears, read: CHO cells, 1 μM thapsigargin, 2 mM calcium chloride.
Where [9] appears, read: TGase inhibitory activity value, Table 1.
[10] abbreviates: polyglutamine aggregation inhibitory activity, Table 1.
Setting [11] is: Cricetulus griseus, CHO, Table 1.
[12] abbreviates: Cricetulus griseus, CHO, CHO cells, 1 μM thapsigargin, 2 mM calcium chloride.
The mark [13] stands for this setting: Cricetulus griseus, CHO, CHO cells, thapsigargin store depletion.

As for `c1ccc(B(OCC2CCCN2)c2cccc(COCc3cccc(B(OCC4CCCN4)c4ccccc4)c3)c2)cc1` (stereo not shown) [Example 460, bis(3,3′-(phenyl-2-pyrrolidinomethoxyboryl)benzyl)ether], the “TGase activity remaining (% of DMSO control = 100)” value in assay [1] (setting [4]) and in assay [1] (setting [5]) was 26 in each case. The x-Fold in assay [2] (setting [6]) and in assay [2] (setting [7]) was 0.95 in each case. Further, the half-maximal inhibitory concentration (IC50) in assay [3] (setting [8]) turned out to be 400 nM.

Consider `c1ccc(B(OCc2ccccn2)c2cccc(COCc3cccc(B(OCc4ccccn4)c4ccccc4)c3)c2)cc1` [Example 467, bis(3,3′-(phenyl-2-pyridylmethoxyboryl)benzyl)ether], for which the “TGase activity remaining (% of DMSO control = 100)” value in assay [1] (setting [4]) and in assay [1] (setting [5]) was 60 in each case. The x-Fold in assay [2] (setting [6]) and in assay [2] (setting [7]) was 0.98 in each case. For the same compound, the IC50 in assay [3] (setting [8]) was 250 nM.

“diphenyl(tyrosinate-O,N)borane [Example 264]”: the “TGase activity remaining (% of DMSO control = 100)” value in assay [1] (setting [4]) and in assay [1] (setting [9]) was 109 throughout. Also, the x-Fold in assay [2] (setting [10]) and in assay [2] (setting [7]) was 1.00 throughout. Moreover, the IC50 in assay [3] (setting [8]) was found to be 5000 nM.

`OB(c1ccccc1)c1cccc(B(O)c2ccccc2)c1` [compound 554]: the IC50 in assay [3] (setting [11]) is greater than 20000 nM.

Turning to `c1ccc(CNCCOB(c2ccccc2)c2ccc(COCc3ccc(B(OCCNCc4ccccc4)c4ccccc4)cc3)cc2)cc1` [Example 456, bis(4,4′-(phenyl-benzylaminoethoxyboryl)benzyl)ether], the “TGase activity remaining (% of DMSO control = 100)” value in assay [1] (setting [4]) and in assay [1] (setting [5]) was 29 in each case. Besides, the x-Fold in assay [2] (setting [6]) and in assay [2] (setting [7]) was 0.87 each time. In addition, the IC50 in assay [3] (setting [8]) amounted to 500 nM.

For `NCCSB(c1ccccc1)c1cccc(COCc2cccc(B(SCCN)c3ccccc3)c2)c1` [Example 405, bis(3,3′-(phenyl-aminoethylthioboryl)benzyl)ether], the x-Fold in assay [2] (setting [6]) and in assay [2] (setting [7]) was 0.86 in each case. Also, the IC50 in assay [3] (setting [12]) and in assay [3] (setting [13]) was 500 nM in each case.

With `OB(c1ccc(COc2ccc(B(O)c3ccc(C(F)(F)F)cc3)cc2)cc1)c1ccc(C(F)(F)F)cc1` [Example 372, (4-trifluoromethylphenylhydroxyborylphenyl)(4′-trifluoromethylphenylhydroxyborylbenzyl)ether], the x-Fold in assay [2] (setting [10]) and in assay [2] (setting [7]) was 0.86 each time. Also, the IC50 in assay [3] (setting [12]) and in assay [3] (setting [11]) was 1000 nM each time.

For the compound `CC1[NH2+][B-](c2ccccc2)(c2ccccc2)OC1=O` (stereo not shown) [Example 258, diphenyl(alaninate-O,N)borane], the “TGase activity remaining (% of DMSO control = 100)” value in assay [1] (setting [4]) and in assay [1] (setting [9]) was 110 in each case. Moreover, the IC50 in assay [3] (setting [12]) and in assay [3] (setting [11]) was 5000 nM each time.

On to `Cc1ccc(B(OCc2ccccn2)c2ccc(C)c(Cl)c2)cc1Cl` [Example 215], for which the x-Fold in assay [2] (setting [10]) and in assay [2] (setting [7]) was 1.03 each time. Further, the concentration for half-maximal inhibition (IC50) in assay [3] (setting [12]) and in assay [3] (setting [11]) was 2000 nM in each case.

As for `OB(c1ccccc1)c1ccc(COCc2cccc(B(O)c3ccccc3)c2)cc1` [Example 329, (3-(phenylhydroxyboryl)benzyl)(4-(phenylhydroxyboryl)benzyl)ether], the “TGase activity remaining (% of DMSO control = 100)” value in assay [1] (setting [4]) and in assay [1] (setting [9]) was 81 throughout. The 50% inhibitory concentration (IC50) in assay [3] (setting [12]) and in assay [3] (setting [11]) was 200 nM throughout.

As for `NC(CCC(=O)O)C(=O)OB(c1ccccc1)c1ccc(Oc2ccc(B(OC(=O)C(N)CCC(=O)O)c3ccc(CO)cc3)cc2)cc1` (stereo not shown) [compound 1036], the IC50 in assay [3] (setting [11]) worked out at 300 nM.

Take `NCCOB(c1ccc(COc2ccc(B(OCCN)c3ccc(C(F)(F)F)cc3)cc2)cc1)c1ccc(C(F)(F)F)cc1` [Example 373, (4-trifluoromethylphenylaminoethoxyborylphenyl)(4′-trifluoromethylphenylaminoethoxyborylbenzyl)ether]: the x-Fold in assay [2] (setting [10]) and in assay [2] (setting [7]) was 0.84 in each case. The half-maximal inhibitory concentration (IC50) in assay [3] (setting [12]) and in assay [3] (setting [11]) was 2000 nM in each case.

Turning to `CN(C)CCOB(c1ccccc1)c1cccc(COCc2cccc(B(OCCN(C)C)c3ccccc3)c2)c1` [Example 403, bis(3,3′-(phenyl-N,N-dimethylaminoethoxyboryl)benzyl)ether], the x-Fold came out at 1.14 in assay [2] (polyglutamine aggregation, Truncated N-terminal huntington 150 Q-EGFP-Neuron 2a cells, listed as 2022) and 1.14 in assay [2] (setting [7]). Moreover, the half-inhibitory concentration (IC50) in assay [3] (setting [12]) and in assay [3] (setting [13]) was 2000 nM throughout.

In the case of `OB(c1ccccc1)c1ccc(COc2ccc(B(O)c3ccccc3)cc2)cc1` [Example 370, (4-phenylhydroxyborylphenyl)(4′-phenylhydroxyborylbenzyl)ether], the x-Fold in assay [2] (setting [10]) and in assay [2] (setting [7]) was 0.76 each time. For the same compound, the IC50 in assay [3] (setting [12]) and in assay [3] (setting [11]) was 2000 nM in each case.

Consider `Cc1ccc(B(OC(=O)C(N)CC(N)=O)c2ccc(C)c(Cl)c2)cc1Cl` (stereo not shown) [compound 4103], for which the half-maximal inhibitory concentration (IC50) in assay [3] (setting [11]) worked out at 300 nM.

In the case of “bis(3-chloro-4-methylphenyl hydroxyborylbenzyl)ether [Example 125]”, the “TGase activity remaining (% of DMSO control = 100)” value in assay [1] (setting [4]) and in assay [1] (setting [9]) was 113 throughout. For the same compound, in assay [3] (setting [8]), the half-maximal inhibitory concentration (IC50) worked out at 10000 nM.

For `NCCC(N)C(=O)OB(c1ccccc1)c1ccccc1` (stereo not shown) [Example 280, diphenyl(2,4-diaminolacetic acid)borane], the “TGase activity remaining (% of DMSO control = 100)” value in assay [1] (setting [4]) is 98; in assay [1] (TGase inhibitory activity value, Table 1, listed as 897), 98. In addition, the x-Fold in assay [2] (polyglutamine aggregation inhibitory activity, Table 1, listed as 897) came out at 0.88; in assay [2] (setting [7]), 0.88.

Take `NCCSB(c1ccccc1)c1ccccc1` [Example 151, 2-aminoethylthiodiphenylborane]: the “TGase activity remaining (% of DMSO control = 100)” value in assay [1] (setting [4]) and in assay [1] (setting [9]) was 33 in each case. The x-Fold in assay [2] (setting [10]) and in assay [2] (setting [7]) was 0.87 in each case.

In the case of `OB(c1ccc(Cl)c(F)c1)c1ccc(Cl)c(F)c1` [Example 83, bis(3-fluoro-4-chlorophenyl)borinic acid], the “TGase activity remaining (% of DMSO control = 100)” value in assay [1] (setting [4]) was determined as 101; in assay [1] (TGase inhibitory activity value, Table 1, listed as 6012), 101. Also, the x-Fold in assay [2] (polyglutamine aggregation inhibitory activity, Table 1, listed as 6012) came out at 0.92; in assay [2] (setting [7]) it was 0.92.

Regarding `Cc1cc(B(OCCN)c2ccc(COCc3ccc(B(OCCN)c4ccc(Cl)c(C)c4)cc3)cc2)ccc1Cl` [Example 339], the “TGase activity remaining (% of DMSO control = 100)” value in assay [1] (setting [4]) and in assay [1] (setting [9]) was 115 each time. Besides, the x-Fold in assay [2] (setting [10]) and in assay [2] (setting [7]) was 0.91 throughout.

Consider `O=C(OB(c1ccccc1)c1ccccc1)C1CNCCN1` (stereo not shown) [Example 279, diphenyl(2-piperazinecarboxy)borane], for which the “TGase activity remaining (% of DMSO control = 100)” value in assay [1] (setting [4]) and in assay [1] (setting [9]) was 103 throughout. In addition, the x-Fold in assay [2] (setting [10]) and in assay [2] (setting [7]) was 0.98 in each case.

`COc1ccc(B(OC(=O)C(N)CCN)c2ccc(COCc3ccc(B(OC(=O)C(N)CCN)c4ccc(OC)cc4)cc3)cc2)cc1` (stereo not shown) [Example 415, bis(4,4′-(p-methoxyphenyl-2,4-diaminobutyric acid boryl)benzyl)ether]: the “TGase activity remaining (% of DMSO control = 100)” value in assay [1] (setting [4]) and in assay [1] (setting [5]) was 130 in each case. Further, the x-Fold in assay [2] (setting [6]) and in assay [2] (setting [7]) was 0.90 throughout.

Consider `c1ccc(B(OCc2ccccn2)c2ccc(COCc3ccc(B(OCc4ccccn4)c4ccccc4)cc3)cc2)cc1` [Example 184, di(4-(phenyl-2-pyridylmethoxyboryl)benzyl)ether], for which the “TGase activity remaining (% of DMSO control = 100)” value in assay [1] (setting [4]) and in assay [1] (setting [9]) was 94 each time. For the same compound, the x-Fold in assay [2] (setting [10]) and in assay [2] (setting [7]) was 0.95 each time.

On to `CCN(CC)CC.CN(C)c1ccc2c(-c3ccc(NC(=S)NCCCCC(N)C(=O)OB(c4ccccc4)c4ccccc4)cc3C(=O)[O-])c3ccc(=[N+](C)C)cc-3oc2c1` (stereo not shown) [Example 176, diphenyl(tetramethylrhodamine 2,6-diaminocapronate-O,N)borane], for which the “TGase activity remaining (% of DMSO control = 100)” value in assay [1] (setting [4]) and in assay [1] (setting [9]) was 47 each time. Besides, the x-Fold in assay [2] (setting [10]) and in assay [2] (setting [7]) was 1.06 throughout.

On to `CN(C)CCOB(c1ccccc1)c1ccc(Oc2ccc(B(OCCN(C)C)c3ccc(CO)cc3)cc2)cc1` [Example 392, (4-(phenyl-N,N-dimethylaminoethoxyboryl)phenyl)(4′-(hydroxymethylphenyl-N,N-dimethylaminoethoxyboryl)phenyl)ether], for which the “TGase activity remaining (% of DMSO control = 100)” value in assay [1] (setting [4]) and in assay [1] (setting [9]) was 83 in each case. Further, the x-Fold in assay [2] (setting [10]) and in assay [2] (setting [7]) was 0.91 in each case.
